Source: ChEMBL document CHEMBL5291721, “A preclinical secondary pharmacology resource illuminates target-adverse drug reaction associations of marketed drugs” (Nat Commun, 2023)

How the values were obtained:
[1] = molecular target: Gamma-aminobutyric acid receptor subunit alpha-1/alpha-2/beta-2/gamma-2 (Homo sapiens, UniProt P14867+P18507+P47869+P47870); assay type: protein-complex assay
D(3) dopamine receptor [2] = molecular target: T1, D(3) dopamine receptor (Homo sapiens, UniProt P35462)
Thromboxane A2 receptor [3] = molecular target: T2, Thromboxane A2 receptor (Homo sapiens, UniProt P21731); assay type: functional, cell-based
T2 sequence (P21731 whole entry): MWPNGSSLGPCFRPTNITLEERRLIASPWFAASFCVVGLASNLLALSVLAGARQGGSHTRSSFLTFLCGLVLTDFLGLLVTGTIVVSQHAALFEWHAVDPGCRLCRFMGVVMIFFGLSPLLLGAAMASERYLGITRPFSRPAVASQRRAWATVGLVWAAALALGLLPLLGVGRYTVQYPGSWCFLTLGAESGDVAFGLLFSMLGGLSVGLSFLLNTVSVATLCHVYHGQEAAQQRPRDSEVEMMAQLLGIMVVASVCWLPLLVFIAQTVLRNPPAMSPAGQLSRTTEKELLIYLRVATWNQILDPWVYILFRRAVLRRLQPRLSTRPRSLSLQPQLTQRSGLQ

[4] = molecular target: Vascular endothelial growth factor receptor 2 (Homo sapiens, UniProt P35968); assay type: functional
[5] = molecular target: T3, Alpha-1A adrenergic receptor (Homo sapiens, UniProt P35348); assay type: functional, cell-based
T3 sequence (P35348 whole entry): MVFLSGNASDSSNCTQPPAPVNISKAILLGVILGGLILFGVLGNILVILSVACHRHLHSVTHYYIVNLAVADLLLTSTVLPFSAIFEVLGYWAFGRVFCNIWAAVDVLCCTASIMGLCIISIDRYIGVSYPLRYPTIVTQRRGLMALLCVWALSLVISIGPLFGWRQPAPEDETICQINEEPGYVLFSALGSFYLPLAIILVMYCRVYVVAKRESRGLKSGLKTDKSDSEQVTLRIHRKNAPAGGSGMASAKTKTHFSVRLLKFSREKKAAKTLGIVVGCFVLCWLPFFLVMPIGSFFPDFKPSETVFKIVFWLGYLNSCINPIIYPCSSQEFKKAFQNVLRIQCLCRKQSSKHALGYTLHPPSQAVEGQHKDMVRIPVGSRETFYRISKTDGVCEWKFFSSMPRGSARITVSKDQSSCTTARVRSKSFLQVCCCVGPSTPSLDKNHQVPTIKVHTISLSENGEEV

Mu-type opioid receptor [6] = molecular target: T4, Mu-type opioid receptor (Homo sapiens, UniProt P35372)
Prothrombin = Prothrombin (Homo sapiens, UniProt P00734); assay type: functional
Thromboxane A2 receptor [7] = molecular target: T2, Thromboxane A2 receptor; assay type: functional, cell-based; remark: listed apart in the source
D(3) dopamine receptor [8] = molecular target: T1, D(3) dopamine receptor; remark: listed apart in the source
Mu-type opioid receptor [9] = molecular target: T4, Mu-type opioid receptor; assay: biochemical; assay type: functional
[10] = molecular target: Beta-2 adrenergic receptor (Homo sapiens, UniProt P07550)
[11] = molecular target: T5, 5-hydroxytryptamine receptor 2C (Homo sapiens, UniProt P28335)
T5 sequence (P28335 whole entry): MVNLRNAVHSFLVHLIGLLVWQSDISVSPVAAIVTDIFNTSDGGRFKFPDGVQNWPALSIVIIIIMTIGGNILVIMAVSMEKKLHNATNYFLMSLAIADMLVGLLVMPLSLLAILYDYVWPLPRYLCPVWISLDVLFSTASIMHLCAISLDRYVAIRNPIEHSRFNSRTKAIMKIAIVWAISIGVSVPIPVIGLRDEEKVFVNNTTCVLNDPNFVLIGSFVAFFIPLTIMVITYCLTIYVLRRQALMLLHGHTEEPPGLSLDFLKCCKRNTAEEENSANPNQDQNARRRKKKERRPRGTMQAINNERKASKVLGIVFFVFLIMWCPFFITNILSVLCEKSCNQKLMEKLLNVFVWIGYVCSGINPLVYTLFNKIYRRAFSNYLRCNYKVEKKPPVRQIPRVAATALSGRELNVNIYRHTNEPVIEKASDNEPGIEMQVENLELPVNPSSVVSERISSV

[12] = molecular target: Gamma-aminobutyric acid receptor subunit alpha-1 (Rattus norvegicus, UniProt P62813)
Note: assay procedure not described here.

T4 sequence (P35372 whole entry): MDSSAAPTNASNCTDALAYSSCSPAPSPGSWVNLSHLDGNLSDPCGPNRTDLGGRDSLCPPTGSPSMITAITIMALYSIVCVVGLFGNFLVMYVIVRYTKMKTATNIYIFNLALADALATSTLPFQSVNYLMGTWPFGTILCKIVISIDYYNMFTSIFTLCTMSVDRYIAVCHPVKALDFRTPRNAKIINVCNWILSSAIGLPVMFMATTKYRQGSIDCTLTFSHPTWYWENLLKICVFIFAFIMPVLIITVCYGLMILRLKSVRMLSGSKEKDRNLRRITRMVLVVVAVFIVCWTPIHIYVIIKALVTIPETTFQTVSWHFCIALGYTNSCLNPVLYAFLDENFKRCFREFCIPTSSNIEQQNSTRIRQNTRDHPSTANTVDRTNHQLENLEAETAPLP
T1 sequence (P35462 whole entry): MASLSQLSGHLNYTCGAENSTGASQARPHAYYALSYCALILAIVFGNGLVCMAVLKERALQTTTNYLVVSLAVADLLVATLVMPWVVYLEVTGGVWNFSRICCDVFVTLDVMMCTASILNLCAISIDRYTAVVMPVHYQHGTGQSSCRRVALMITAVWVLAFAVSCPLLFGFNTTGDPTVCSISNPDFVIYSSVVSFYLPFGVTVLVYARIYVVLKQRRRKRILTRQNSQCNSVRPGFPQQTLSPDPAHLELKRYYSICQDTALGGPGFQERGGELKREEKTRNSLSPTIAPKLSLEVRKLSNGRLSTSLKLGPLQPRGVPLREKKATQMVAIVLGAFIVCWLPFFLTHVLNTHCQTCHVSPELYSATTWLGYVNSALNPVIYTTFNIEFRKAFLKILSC
Sequence of Gamma-aminobutyric acid receptor subunit alpha-1 (P62813 whole entry): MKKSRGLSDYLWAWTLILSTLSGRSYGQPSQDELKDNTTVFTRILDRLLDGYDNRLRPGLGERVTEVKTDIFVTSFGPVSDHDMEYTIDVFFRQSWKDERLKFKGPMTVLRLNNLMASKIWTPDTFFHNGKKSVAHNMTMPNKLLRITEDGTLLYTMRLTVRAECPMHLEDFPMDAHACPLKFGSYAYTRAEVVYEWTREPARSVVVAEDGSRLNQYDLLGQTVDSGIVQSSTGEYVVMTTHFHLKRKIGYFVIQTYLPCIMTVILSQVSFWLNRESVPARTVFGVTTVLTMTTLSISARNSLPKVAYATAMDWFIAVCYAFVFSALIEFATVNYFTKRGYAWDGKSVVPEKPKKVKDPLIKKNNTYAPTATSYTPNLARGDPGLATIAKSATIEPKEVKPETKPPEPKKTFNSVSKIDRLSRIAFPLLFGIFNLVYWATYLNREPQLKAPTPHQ
Sequence of Vascular endothelial growth factor receptor 2 (P35968 whole entry): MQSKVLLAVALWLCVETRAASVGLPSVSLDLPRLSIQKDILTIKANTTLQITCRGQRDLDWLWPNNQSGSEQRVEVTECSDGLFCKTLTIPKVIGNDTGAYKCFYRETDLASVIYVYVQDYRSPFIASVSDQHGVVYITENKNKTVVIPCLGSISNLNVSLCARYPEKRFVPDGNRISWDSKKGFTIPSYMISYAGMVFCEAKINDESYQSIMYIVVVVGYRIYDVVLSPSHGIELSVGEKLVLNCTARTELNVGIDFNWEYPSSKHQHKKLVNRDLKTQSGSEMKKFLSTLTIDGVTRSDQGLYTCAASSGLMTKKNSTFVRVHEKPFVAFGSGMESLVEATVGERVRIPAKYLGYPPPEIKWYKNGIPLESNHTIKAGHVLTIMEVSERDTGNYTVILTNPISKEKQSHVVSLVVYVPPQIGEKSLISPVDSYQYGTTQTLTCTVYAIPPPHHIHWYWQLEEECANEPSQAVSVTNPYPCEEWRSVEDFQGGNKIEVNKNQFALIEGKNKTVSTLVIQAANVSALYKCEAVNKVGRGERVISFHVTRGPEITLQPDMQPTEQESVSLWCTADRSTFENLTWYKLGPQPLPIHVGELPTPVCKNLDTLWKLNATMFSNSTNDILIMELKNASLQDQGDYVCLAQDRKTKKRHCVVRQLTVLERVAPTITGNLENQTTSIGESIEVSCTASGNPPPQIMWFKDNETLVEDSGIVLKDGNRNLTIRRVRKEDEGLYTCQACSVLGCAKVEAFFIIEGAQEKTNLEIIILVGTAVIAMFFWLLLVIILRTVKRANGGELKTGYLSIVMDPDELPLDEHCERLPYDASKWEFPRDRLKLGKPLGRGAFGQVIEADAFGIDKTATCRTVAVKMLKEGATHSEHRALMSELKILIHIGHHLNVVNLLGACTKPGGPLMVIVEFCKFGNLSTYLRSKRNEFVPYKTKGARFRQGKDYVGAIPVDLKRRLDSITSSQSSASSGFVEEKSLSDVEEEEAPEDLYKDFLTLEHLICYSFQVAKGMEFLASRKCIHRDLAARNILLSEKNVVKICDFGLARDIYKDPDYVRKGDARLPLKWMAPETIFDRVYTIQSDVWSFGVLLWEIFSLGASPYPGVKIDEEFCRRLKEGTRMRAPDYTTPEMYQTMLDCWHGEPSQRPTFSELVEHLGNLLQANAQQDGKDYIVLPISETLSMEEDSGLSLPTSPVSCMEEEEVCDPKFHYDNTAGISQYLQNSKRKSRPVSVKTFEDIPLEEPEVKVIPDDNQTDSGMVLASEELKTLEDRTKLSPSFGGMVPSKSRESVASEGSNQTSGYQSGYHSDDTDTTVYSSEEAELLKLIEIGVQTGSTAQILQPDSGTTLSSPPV
Sequence of Gamma-aminobutyric acid receptor subunit alpha-1/alpha-2/beta-2/gamma-2 (P14867 whole entry): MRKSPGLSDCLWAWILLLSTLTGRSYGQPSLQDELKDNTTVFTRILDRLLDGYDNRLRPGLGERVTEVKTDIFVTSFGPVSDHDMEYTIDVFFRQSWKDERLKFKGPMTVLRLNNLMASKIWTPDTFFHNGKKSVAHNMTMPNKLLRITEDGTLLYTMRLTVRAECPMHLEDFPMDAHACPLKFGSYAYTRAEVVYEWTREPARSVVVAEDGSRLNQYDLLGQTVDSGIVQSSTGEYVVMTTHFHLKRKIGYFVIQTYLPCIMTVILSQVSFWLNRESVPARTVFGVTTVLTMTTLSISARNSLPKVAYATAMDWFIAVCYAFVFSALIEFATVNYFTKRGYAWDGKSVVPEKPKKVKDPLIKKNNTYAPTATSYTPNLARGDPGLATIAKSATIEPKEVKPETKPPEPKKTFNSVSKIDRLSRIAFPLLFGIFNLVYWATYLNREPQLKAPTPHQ
Sequence of Gamma-aminobutyric acid receptor subunit alpha-1/alpha-2/beta-2/gamma-2 (P47870 whole entry): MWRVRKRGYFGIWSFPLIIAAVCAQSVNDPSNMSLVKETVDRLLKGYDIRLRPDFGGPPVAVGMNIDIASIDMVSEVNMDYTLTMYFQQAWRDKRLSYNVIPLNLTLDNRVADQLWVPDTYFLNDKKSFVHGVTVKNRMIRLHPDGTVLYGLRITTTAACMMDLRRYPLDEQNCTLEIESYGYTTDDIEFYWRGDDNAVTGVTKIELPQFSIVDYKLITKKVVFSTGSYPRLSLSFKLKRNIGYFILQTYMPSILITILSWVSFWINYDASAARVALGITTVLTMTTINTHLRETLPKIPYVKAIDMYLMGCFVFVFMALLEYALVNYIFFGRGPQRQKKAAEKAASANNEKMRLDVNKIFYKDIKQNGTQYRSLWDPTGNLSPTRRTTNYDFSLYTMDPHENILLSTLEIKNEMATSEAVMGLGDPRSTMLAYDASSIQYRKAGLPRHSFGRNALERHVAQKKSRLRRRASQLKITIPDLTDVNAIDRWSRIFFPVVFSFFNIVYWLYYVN
Sequence of Gamma-aminobutyric acid receptor subunit alpha-1/alpha-2/beta-2/gamma-2 (P18507 whole entry): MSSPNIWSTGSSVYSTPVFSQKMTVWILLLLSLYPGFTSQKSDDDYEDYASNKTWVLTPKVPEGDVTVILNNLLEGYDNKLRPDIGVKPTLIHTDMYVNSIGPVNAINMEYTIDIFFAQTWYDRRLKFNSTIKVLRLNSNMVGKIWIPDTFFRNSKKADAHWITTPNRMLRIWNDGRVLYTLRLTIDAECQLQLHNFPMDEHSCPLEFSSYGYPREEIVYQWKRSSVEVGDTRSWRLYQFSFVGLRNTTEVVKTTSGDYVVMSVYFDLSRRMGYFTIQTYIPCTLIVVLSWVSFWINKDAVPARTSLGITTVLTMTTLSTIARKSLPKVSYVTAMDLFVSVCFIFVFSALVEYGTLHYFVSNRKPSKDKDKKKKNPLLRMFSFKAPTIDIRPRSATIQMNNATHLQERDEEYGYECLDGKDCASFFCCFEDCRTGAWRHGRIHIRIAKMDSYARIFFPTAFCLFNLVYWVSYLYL
Sequence of Gamma-aminobutyric acid receptor subunit alpha-1/alpha-2/beta-2/gamma-2 (P47869 whole entry): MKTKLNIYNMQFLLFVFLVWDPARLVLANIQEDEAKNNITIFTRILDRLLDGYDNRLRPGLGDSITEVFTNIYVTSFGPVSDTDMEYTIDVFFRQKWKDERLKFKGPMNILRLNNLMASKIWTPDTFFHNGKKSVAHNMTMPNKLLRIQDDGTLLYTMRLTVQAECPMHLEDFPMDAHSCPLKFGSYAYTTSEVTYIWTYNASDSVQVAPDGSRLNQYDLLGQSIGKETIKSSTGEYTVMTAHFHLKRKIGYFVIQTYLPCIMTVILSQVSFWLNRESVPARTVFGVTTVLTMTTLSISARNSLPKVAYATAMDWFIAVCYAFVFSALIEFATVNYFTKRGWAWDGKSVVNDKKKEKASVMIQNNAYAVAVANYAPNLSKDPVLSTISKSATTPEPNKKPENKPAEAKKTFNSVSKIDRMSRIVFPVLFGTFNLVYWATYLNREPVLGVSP
Sequence of Beta-2 adrenergic receptor (P07550 whole entry): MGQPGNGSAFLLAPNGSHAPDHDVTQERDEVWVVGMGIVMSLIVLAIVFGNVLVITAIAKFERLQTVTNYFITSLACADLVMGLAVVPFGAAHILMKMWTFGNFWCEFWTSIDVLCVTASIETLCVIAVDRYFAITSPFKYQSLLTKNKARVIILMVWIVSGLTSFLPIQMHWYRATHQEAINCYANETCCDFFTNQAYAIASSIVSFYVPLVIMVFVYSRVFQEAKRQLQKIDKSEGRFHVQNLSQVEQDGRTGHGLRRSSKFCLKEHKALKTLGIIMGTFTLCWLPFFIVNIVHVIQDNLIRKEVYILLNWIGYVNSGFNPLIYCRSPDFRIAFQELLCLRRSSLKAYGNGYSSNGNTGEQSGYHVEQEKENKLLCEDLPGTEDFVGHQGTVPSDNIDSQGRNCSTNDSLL

Work on CN(C)C(=O)Oc1cccc([N+](C)(C)C)c1 [NEOSTIGMINE] yielded an AC50 [1] greater than 30 µM, an AC50 (D(3) dopamine receptor [2]) greater than 30 µM and an AC50 (Thromboxane A2 receptor [3]) greater than 30 µM. For the same molecule, the AC50 [4] was greater than 30 µM, the AC50 [5] was greater than 30 µM and the AC50 (Mu-type opioid receptor [6]) was greater than 30 µM. For the same molecule, the AC50 (Prothrombin) was greater than 30 µM and the AC50 (Thromboxane A2 receptor [7]) was greater than 30 µM.

CCN(CC)C(=O)C1(c2ccccc2)CC1CN (stereo not drawn) gave an AC50 (D(3) dopamine receptor [8]) greater than 30 µM, an AC50 (Mu-type opioid receptor [9]) greater than 30 µM and an AC50 [10] greater than 30 µM. The AC50 [11] was 0.59 µM and the AC50 [12] was greater than 30 µM.
